These results are taken from paper PMC4792557 (Oncotarget, 2015).

Experiment in all cases: cells
The test system of one experiment is A549. Details: species or system H23, H460, H358; CellTiter-Glo ATP viability of NSCLC cell lines. The conditions noted are these: Homo sapiens, A549, 48 h, read-out: AZD6738 GI50 (uM). As for the experimental part: (§1) ATP levels were assessed as surrogate measure of viability was assessed using the CellTiter-Glo Luminescent Cell Viability Assay (Promega) and Safire^2 plate reader (Tecan). Raw data were corrected for background luminescence prior to further analysis. […] GI50 values, defined as the dose X at which Y = 50%, were extrapolated from dose response curves. For combination treatments, data were normalized to the mean of untreated controls. Loewe excess matrices were generated using Chalice Analyzer Online (Horizon CombinatoRx) and mean normalized inhibition values. […] Log dose response curves were generated in GraphPad Prism 6 by nonlinear regression (log(inhibitor) vs. normalized response with variable slope) of log-transformed (x = log(x)), normalized data. IC50 values were calculated by Prism 6.

A further experiment has as its system H23. Details: species or system H460, A549, H358; CellTiter-Glo ATP viability of NSCLC cell lines. To be noted: Homo sapiens, NCI-H23, 48 h, read-out: AZD6738 GI50 (uM). As for the experimental part: as §1
The subject of the next experiment is H358. The arrangement: species or system H23, H460, A549; CellTiter-Glo ATP viability of NSCLC cell lines. The conditions noted are these: Homo sapiens, NCI-H358, 48 h, read-out: AZD6738 GI50 (uM). The procedure: as §1
A further experiment deals with H460. The arrangement: species or system H23, A549, H358; CellTiter-Glo ATP viability of NSCLC cell lines. The conditions noted are these: Homo sapiens, NCI-H460, 48 h, read-out: AZD6738 GI50 (uM). As for the experimental part:
as §1

Take `C[C@@H]1COCCN1c1cc(C2([S@](C)(=N)=O)CC2)nc(-c2cc[nH]c3nccc2-3)n1` [AZD6738]: the GI50 (as a rule, the concentration that inhibits growth by half) in the experiment on A549 was found to be 5.42 µM; in the experiment with H23 it was 2.38 µM; with H358, 6.95 µM; in the experiment on H460 it was 1.05 µM.
